“Also recorded” adds a separate entry of the source. Where no end group is shown, it is not given here. [ ]: non-standard residue; d: D form. pS = N[C@@H](COP(=O)(O)O)C(=O)O
Assays:
[1] = Real time association and dissociation of dye to bead (color intensity); assay type: binding
Experimental: (§1) Dye solutions were prepared in PBS to a 100 μM final concentration and 5 mL of each dye solution were added into the 60 mm dish with beads. Three dyes were tested sequentially. The dish was kept swirling at 60 rpm on the rotator. The dye binding was monitored for 90 minutes, and then the dye solution was removed from the dishes and PBS was added to rinse the beads on the bottom to remove the color dye. The PBS solution was changed every 30 min and the dish was always swirled as above. The beads color change was also observed and recorded at certain time interval during the whole wash process to collect data of color dissociation. Before adding the next dye solution, beads were washed with 70% ethanol to completely remove residual dye and were rinsed with PBS solution three times afterwards.
(§2) A representative positive bead for each color was selected for the color binding and dissociation study. A series of images were taken at different time points during the binding and washing process. From the images taken, regions of interest (ROI) with the same size were picked up from the color beads and colorless control beads. The value from the control bead was subtracted from the color bead to get quantitated color value for each single color bead. The measure of the color intensity for each color dye was performed using the Kodak Image Station 2000MM.
(§3) With the PDMS affixed bead method, it is possible to dynamically observe the peptide-dye interaction on each individual immobilized bead in real time. To further characterize the binding profile for each of the target/sequence interactions, beads #1, #4 and #10 were selected for binding and dissociation study with each respective target dye, by measuring the intensity of the resulting color accumulation on the bead surface at different time points. The values obtained for color intensity across progressing time points were plotted and the profiles for the three dye/bead interactions were compared. The association and dissociation rate of each organic dye to its respective binding peptide was evaluated. […]

[2] = Sequential screening of PDMS affixed OBOC bead array with three dyes; assay type: binding; conditions: 100 μM dye in PBS, three dyes incubated sequentially on the same bead array
Experimental: Silicon Elastomer Base was mixed completely with Silicone Elastomer Curing Agent at ratio 10:1 in volume and the solution was kept in vacuum container for 15 to 20 minutes to eliminate the gas bubbles formed during the mixing process. After the removal of all residual bubbles, approximately 0.5-1 mL of PDMS solution was added into the bottom of a 60 mm culture dish. The dish was then spun on a single wafer spin processor (Laurell Technologies Corporation®, model WS-6505-6NPP/Lite) to evenly distribute the solution over the plates, at a speed of 4000 rpm for 30 s. A 5 μm layer of PDMS was formed on the bottom of dish and was cured at 80° C. for 5 min or at room temperature for 24 hrs to allow for beads immobilization. Knowing that the PDMS coating was about 5 μm thick and the radius of bead was around 45 μm, the percentage of free bead surface area was estimated by the formula of [1-2πrh/4πr^2]×100% (h=thickness of PDMS layer; r=radius of bead) to be approximately 95%. The library beads resuspended in 70% ethanol solution were first randomly placed on the surface of a glass plate that was 10% smaller than the dish used in the experiment. After the ethanol evaporated, a syringe needle was used to adjust the dry beads to evenly redistribute beads on the glass surface. Then the dish was inverted and the PDMS layer was pressed down onto the glass plate with beads. The library beads were embedded partly inside the PDMS layer.
as §1, §2
The PDMS affixed bead array was incubated with three different dyes sequentially. […] Eleven beads were selected for further analysis based on their characteristic binding profiles (FIG. 2). […] The amino acid sequences of the peptides bound to the beads were determined (Table 1).

[3] = Histone H2 tail OBOC library screening with DMHBI; assay type: binding; conditions: library peptide fused to N-terminal H2
Experimental: An OBOC combinatorial library was prepared for the development of GESIs for probing histone H2 tail. The library design is shown in FIG. 20C, wherein X represents all 20 eukaryotic amino acids except for cysteine; all possible post-translational modification states of Ser-1 and Lys-5 are incorporated; and additional Xs at the N-terminus of the histone tail will provide necessary capturing residues for fluorescent dyes.

[4] = Real time association and dissociation of dye to bead (color intensity); assay type: binding; remark: listed apart in the source
Experimental: as §1, §2, §3

[5] = Fluorescent activation of MG by peptide compared with LTA2 and LTA10; assay type: binding; conditions: preliminary data
Description: We expect to generate a toolbox of functional illuminant peptides that can be used in a broad range of biological applications. Translating the peptides identified in aim 1 to highly sensitive and specific functional illuminants in living cells, however, is more challenging. In this proposal, we will characterize the utility of these peptides in live cells with an emphasis on phosphorylation (Aim 2) and histone epigenetics (Aim 3). As indicated above, we plan to design and synthesize a series of dyes candidates for GESI development. We are cognizant that many organic dyes bind non-specifically to many proteins, but usually at rather high concentration (mM). […] It is also important to realize that not all binding events will activate fluorescence. […] This works in our favor as not all non-specific binding (if there is any) will lead to activation of the dyes. One concern that the previous reviewers have was the large number of Trp in our initial leads (e.g. LTA2 and LTA10). As shown in the preliminary data, many strong activators for MG have low number of Trp. For example, fluorescent activation of MG by LRRAS(P)LFYGMWYPST (SEQ ID NO:227), with only 1 Trp, is 4-5× brighter than that of LTA2 and LTA10.

[6] = tested on: HEK293 cells; test: Dual-color confocal imaging of Cerulean-linker-peptide fusion proteins with MG and acetylcholine; assay type: cell-based
Description: To evaluate the utility of lead peptides in mammalian cells, individual peptide tags were fused to the C-terminus of a cyan fluorescence protein (Cerulean 3) anchored on the plasma membrane. An amino acid linker (GGSGSGGS: SEQ ID NO:33) was placed between C-terminus of Cerulean and the peptide to increase the solubility and stability of the recombinant fusion proteins. Goals for the design of fusion proteins are two-folds. First, the labeling ability of peptides can be readily detected by co-localization of both cyan and infrared fluorescence. Second, the calcium sensing ability of peptide can be tested by taking advantage of endogenous acetylcholine (Ach) receptors; Ach stimulus leads to transient calcium influx in cytosol, which may lead to increased MG fluorescence. Given the limited membrane permeability of MG, a relative high concentration of MG (5×10^−7 M) was used for the imaging assay. 48 hrs post-transfection, time-lapse, dual-color confocal fluorescence microscopy images were taken upon MG incubation, followed by Ach addition. […] The fluorescence intensity reached plateau within seconds and remains stable during the 10 mins period of imaging window. In contrast, no apparent infrared fluorescence was observed when membrane-anchored Cerulean control (without grafted peptide) was expressed upon MG addition (FIG. 15A). […]

[7] = Titration of immobilized peptides on TentaGel beads with MG in presence and absence of 2 mM Ca2+; assay type: binding; conditions: presence vs absence of 2 mM Ca2+, peptide on bead
Experimental: (§4) Two peptides that can activate MG with or without calcium sensitivity were selected for further characterization. A solution form of the two peptides were synthesized and titrated with MG in the presence of 2 mM Ca^2+. Fluorescent signal at 650 nm was measured. […] Computational modeling confirmed stably folded structure of peptide 12 upon MG binding, preventing intramolecular motions of MG (FIG. 8B, FIG. 10A, B). […] The immobilized peptides on TentaGel beads were then titrated with an increasing amount of MG in the presence and absence of 2 mM Ca^2+. Fluorescent emission at 650 nm by each individual bead was measured. […] Computational modeling further confirmed that stably folded structure of peptide 2 only forms upon calcium binding (FIG. 11B).

[8] = MG binding of peptide ligands from screening and their derivatives; parameters: key to MG binding: −: no binding; +: weak binding; ++: mild binding; +++: strong binding; ++++: very strong binding; conditions: 11 hour incubation with 5 μM MG in PBS buffer (pH 7.4)
[9] = Fluorescence titration of peptide in solution with MG, 2 mM Ca2+, 650 nm; assay type: binding
Experimental: as §4

## CHTHILC (not fully specified (bridges); cysteine pairing not given here; also: bead-bound) [Bead #4]
[1]; bead incubated with bromocresol purple
  Time to maximum color binding: around 75 minutes
[1]; washing
  Time until color disappeared (dissociation): ≤ 72 h
[2]; listed as # 4
  Dye binding: Bromocresol
[2]; listed as #4
  Dye binding: only bind to bromocresol purple; also recorded: bind only to bromocresol purple

## DPSWPNS(P)GRGK(Ac) (DPSWPN[pS]GRGK(Ac))
[3]
  DMHBI activation: DMHBI activating

## TRPSMWS(P)GRGK(Ac) (TRPSMW[pS]GRGK(Ac))
[3]
  DMHBI activation: DMHBI activating

## VWDGIRS(P)GRGK(Ac) (VWDGIR[pS]GRGK(Ac))
[3]
  DMHBI activation: DMHBI activating

## CKWILPC (not fully specified (bridges); cysteine pairing not given here; also: bead-bound) [Bead #10]
[1]; bromocresol purple
  Binding and dissociation rates compared with indigo carmine: much slower
[4]; bead incubated with indigo carmine
  Time until colorization was seen: within five minutes
[4]; washing with PBS
  Time until color completely gone (dissociation): 20 min
[2]; listed as #10
  Dye binding: bind to both indigo carmine and bromocresol purple

## LRRAS(P)LFYGMWYPST (LRRA[pS]LFYGMWYPST)
[5]
  Fluorescent activation of MG, brightness relative to LTA2 and LTA10: 4-5 ×

## DWWWDGFERLEE (synthetic genetically encoded small illuminant (GESI) malachite green (MG) binding Peptide 2)
[6]
  Sensitivity to calcium upon acetylcholine stimulation: showed sensitivity to calcium
[6]; living cells
  Increase of MG fluorescence intensity upon Ach addition: 4 fold
[7]
  Increase of MG binding affinity by calcium: about 10 fold
[7]; listed as peptide 2
  Increase of MG binding affinity by calcium: 10 fold
[8]
  MG binding: ++
[9]
  Binding characteristics in solution studies: strong binding characteristics

## CNSPDIC (not fully specified (bridges); cysteine pairing not given here; also: bead-bound) [Bead #1]
[4]; after washing
  Time after which color had not completely diminished (dissociation): > 72 h
[2]; listed as # 1
  Dye binding: Malachite green
[2]; listed as #1
  Dye binding: only bind to malachite green; also recorded: bind only to malachite green

## GLFDQES(P)GRGK (GLFDQE[pS]GRGK)
[3]
  DMHBI activation: DMHBI activating
